Experimental data taken from ChEMBL document CHEMBL1201862, “PubChem BioAssay data set” (2004).
Calls of active or inactive are those of the source.

How the values were obtained:
[1] = HPDE-C7 pancreatic duct cell viability loss – fluorescence, HTS (AID 430); assay type: functional, cell-based; conditions: Homo sapiens
[2] = viability loss of HPDE-C7K cells – cell-based, fluorescence, HTS, primary screen (AID 431); assay type: functional; conditions: Homo sapiens
[3] = viability of PTEN-deleted HCT116 cells – cell-based, HCT116 PTEN knockout, dose response (AID 1047); assay type: functional;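 also: HCT116 colon tumor cells with PTEN knocked out; cells exposed to compound for 60 hours before readout; potency for loss of cell viability measured by luminescence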
[4] = viability of HCT116 lacking mutant beta-catenin – cell-based, human colon tumor, dose response (AID 1045); assay type: functional;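 also: HCT116 colon tumor cells with beta catenin knocked out; cells exposed to compound for 60 hours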
[5] = target: T1, Dual specificity protein phosphatase 6 (Rattus norvegicus, UniProt Q64346); assay: inhibition of rat DUSP6 enzyme activity – biochemical, in vitro, primary screen (AID 425)
T1 sequence (Q64346 whole entry): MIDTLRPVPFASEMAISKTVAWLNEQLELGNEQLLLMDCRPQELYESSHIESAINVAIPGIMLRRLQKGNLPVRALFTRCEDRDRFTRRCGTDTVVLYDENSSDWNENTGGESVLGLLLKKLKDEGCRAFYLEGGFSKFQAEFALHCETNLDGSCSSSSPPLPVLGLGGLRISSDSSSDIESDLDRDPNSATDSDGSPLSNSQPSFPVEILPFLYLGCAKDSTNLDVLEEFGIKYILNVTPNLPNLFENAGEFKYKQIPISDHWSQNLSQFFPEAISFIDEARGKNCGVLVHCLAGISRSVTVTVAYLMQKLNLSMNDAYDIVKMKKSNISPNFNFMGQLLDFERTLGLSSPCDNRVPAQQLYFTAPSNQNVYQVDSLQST

[6] = target: G-protein coupled receptor 183 (Homo sapiens, UniProt P32249); assay: SAR confirmation of small molecule antagonists of the EBI2 receptor via a luminescent beta-arrestin assa.; assay type: functional
[7] = target: Aryl hydrocarbon receptor (Homo sapiens, UniProt P35869); assay: Luminescence-based cell-based high throughput dose response assay for activators of the Aryl Hydrocarbon Receptor (AHR). [Related pubchem assays: 2796 (Primary screen (AHR activators in singlicate)), 2845 (Confirmation screen (AHR activators in triplicate)), 434939 (Counterscreen (PXR activators in triplicate)), 2804 (Summary (AHR activators))]; assay type: ADME
Protein Tat = target: T2, Protein Tat (Human immunodeficiency virus type 1 group M subtype B (isolate HXB2)(HIV-1), UniProt P04608); assay type: functional;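 also: tat binding to TAR RNA read out by fluorescence polarization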
T2 sequence (P04608 whole entry): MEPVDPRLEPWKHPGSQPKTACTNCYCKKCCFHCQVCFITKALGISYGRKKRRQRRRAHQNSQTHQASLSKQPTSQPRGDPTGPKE

[8] = HIV-1 Vif–A3G interaction blockers – biochemical, TR-FRET, GST-Vif 1-94, biotin-A3G peptide, dose response retest, primary screen (AID 1117319); assay type: functional;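 also: TR-FRET signal of purified GST-Vif binding a biotinylated A3G peptide; inhibitors lower the FRET signal by blocking Vif and A3G binding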
Protein RecA = target: T3, Protein RecA (Mycobacterium tuberculosis, UniProt P9WHJ3); assay: Fluorescence Cell-Free Homogeneous Dose Retest to Identify Inhibitors of RecA-Intein Splicing Activity. [Related pubchem assays (depositor defined):AID2097, AID2223, AID489010, AID492950]; assay type: functional
T3 sequence (P9WHJ3 whole entry): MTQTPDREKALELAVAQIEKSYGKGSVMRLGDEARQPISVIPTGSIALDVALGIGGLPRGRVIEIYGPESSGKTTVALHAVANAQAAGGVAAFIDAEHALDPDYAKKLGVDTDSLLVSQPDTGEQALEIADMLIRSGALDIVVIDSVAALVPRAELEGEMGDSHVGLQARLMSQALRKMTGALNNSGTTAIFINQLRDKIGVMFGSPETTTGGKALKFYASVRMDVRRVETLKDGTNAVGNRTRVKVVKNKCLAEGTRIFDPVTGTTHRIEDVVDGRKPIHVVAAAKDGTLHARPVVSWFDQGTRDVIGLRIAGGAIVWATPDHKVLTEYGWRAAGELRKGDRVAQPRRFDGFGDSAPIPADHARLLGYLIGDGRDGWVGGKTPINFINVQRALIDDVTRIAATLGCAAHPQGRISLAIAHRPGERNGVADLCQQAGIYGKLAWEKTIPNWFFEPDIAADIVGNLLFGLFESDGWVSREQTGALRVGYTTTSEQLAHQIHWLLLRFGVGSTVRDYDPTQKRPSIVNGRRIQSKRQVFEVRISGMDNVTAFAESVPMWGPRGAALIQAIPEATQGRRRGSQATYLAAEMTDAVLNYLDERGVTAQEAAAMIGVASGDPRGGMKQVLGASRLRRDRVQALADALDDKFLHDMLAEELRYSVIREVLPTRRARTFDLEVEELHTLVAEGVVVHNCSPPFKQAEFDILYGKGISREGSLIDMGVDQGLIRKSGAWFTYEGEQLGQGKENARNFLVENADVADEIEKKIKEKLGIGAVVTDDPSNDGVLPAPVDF

[9] = target: T4, Polyadenylate-binding protein 1 (Homo sapiens, UniProt P11940); assay: MLLE binding blockers, Cy5 peptide tracer – biochemical, fluorescence polarization, Cy5-PAM2 peptide, secondary, miRNA deadenylation inhibitor project, dose response (AID 602260); assay type: functional; conditions: read-out: IC50_Mean
[10] = target: T4, Polyadenylate-binding protein 1; assay: MLLE domain peptide-binding blockers, IC50 – biochemical, fluorescence polarization, FITC-PAM2 peptide, dose response (AID 602259); assay type: functional; conditions: read-out: IC50_Mean
[11] = viability loss in THP-1 monocytes – THP-1 cells, cytotoxicity control for Vif-APOBEC3G degradation inhibitor project, dose response (AID 1117359); assay type: functional; conditions: THP-1
[12] = growth inhibition of yeast DHODH-expressing 3D7 parasites – SYBR Green, dry powder samples, dose response (AID 1159570); assay type: functional, cell-based;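 also: parasite growth measured after 72 hours of compound exposure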
[13] = toxicity to human HepG2 hepatoma cells – cell-based, plate reader, dry powder samples, cytotoxicity control, dose response (AID 1159569); assay type: functional;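 also: inhibitor potency with signal falling toward the positive control level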
[14] = Dd2 parasite growth inhibition in erythrocytes – SYBR Green, dry powder samples, set 9, dose response (AID 1159568); assay type: functional, cell-based
[15] = P. falciparum Dd2 growth inhibitors, dose response, SYBR Green, cherry-picked samples (AID 1159567); assay type: functional, cell-based
[16] = Dd2 malaria parasite growth inhibition potency – SYBR Green, dry powder samples, dose response (AID 1159566); assay type: functional, cell-based;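 also: potency for growth inhibition with lower SYBR green DNA signal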
[17] = growth inhibition of PfATP4-mutant resistant parasites – NITD609-resistant line, SYBR Green, dry powder, dose response (AID 1159571); assay type: functional, cell-based;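 also: parasites synchronized at ring stage by sorbitol before testing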
Vero = assay: mammalian cell viability reduction – secondary assay, cytotoxicity control for West Nile virus antiviral project, dose response (AID 1650); assay type: functional; conditions: Chlorocebus sabaeus
[18] = target: T5, Ubiquitin-conjugating enzyme E2 N (Homo sapiens, UniProt P61088); assay type: functional;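 also: Dose-response confirmation in a TR-FRET assay detecting UBC13-driven polyubiquitin chain formation, inhibition measured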
T5 sequence (P61088 whole entry): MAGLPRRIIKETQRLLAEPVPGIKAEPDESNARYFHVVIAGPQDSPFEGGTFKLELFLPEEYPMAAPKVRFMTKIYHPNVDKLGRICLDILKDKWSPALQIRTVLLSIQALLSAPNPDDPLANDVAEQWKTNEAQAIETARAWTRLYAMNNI

[19] = IC50 of insulin release inhibition, rat insulinoma INS-1E line, 5 mM glucose, cell-based (AID 1117331); assay type: functional
[20] = glucagon-like peptide-1 release potency in STC-1, concentration-response, half-maximal inhibitory concentration in the STC-1 line (AID 1117345); assay type: functional, cell-based
[21] = Potency on glucagon-like peptide 1 release, dose-response in NCI-H716 cell line, half maximal inhibitory concentration (AID 1117344); assay type: functional, cell-based

T4 sequence (P11940 whole entry, the tested form may be a part): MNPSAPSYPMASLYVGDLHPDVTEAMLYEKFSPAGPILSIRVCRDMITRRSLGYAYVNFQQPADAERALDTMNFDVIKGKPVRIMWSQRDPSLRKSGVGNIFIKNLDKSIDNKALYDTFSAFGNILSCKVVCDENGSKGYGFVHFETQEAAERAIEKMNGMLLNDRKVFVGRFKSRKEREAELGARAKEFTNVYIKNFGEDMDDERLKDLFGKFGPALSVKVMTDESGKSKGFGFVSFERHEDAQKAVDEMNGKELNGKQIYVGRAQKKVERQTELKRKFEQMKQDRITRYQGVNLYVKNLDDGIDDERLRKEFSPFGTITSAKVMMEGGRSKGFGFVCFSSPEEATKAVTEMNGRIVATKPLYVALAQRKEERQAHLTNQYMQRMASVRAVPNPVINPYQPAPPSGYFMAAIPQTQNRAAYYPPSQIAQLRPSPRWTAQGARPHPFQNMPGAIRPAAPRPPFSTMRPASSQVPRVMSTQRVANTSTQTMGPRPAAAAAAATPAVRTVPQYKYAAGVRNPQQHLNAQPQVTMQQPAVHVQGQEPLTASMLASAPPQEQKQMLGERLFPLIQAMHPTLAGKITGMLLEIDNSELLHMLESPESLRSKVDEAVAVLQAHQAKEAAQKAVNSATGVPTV
Aryl hydrocarbon receptor, sequence (P35869 whole entry): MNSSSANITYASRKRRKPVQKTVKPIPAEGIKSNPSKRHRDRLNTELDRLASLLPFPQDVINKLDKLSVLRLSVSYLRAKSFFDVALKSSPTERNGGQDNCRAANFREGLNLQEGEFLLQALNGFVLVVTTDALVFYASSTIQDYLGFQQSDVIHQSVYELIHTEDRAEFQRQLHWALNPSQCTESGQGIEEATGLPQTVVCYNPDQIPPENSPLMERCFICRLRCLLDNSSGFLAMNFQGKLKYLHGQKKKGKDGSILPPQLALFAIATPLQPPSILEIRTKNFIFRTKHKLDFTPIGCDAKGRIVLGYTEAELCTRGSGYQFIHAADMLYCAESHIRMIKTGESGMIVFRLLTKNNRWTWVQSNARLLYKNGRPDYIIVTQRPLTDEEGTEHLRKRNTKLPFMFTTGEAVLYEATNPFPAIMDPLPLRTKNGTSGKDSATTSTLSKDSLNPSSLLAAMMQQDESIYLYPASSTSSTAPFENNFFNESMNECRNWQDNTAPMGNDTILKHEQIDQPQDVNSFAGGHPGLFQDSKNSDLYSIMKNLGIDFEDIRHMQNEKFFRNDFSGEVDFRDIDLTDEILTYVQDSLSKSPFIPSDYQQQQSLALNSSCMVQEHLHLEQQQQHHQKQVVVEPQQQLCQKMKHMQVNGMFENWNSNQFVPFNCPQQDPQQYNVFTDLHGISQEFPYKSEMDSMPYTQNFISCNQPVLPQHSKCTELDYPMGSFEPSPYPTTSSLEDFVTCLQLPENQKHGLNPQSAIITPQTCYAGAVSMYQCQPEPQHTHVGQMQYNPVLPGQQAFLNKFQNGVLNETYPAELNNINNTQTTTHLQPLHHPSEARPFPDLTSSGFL
G-protein coupled receptor 183, sequence (P32249 whole entry): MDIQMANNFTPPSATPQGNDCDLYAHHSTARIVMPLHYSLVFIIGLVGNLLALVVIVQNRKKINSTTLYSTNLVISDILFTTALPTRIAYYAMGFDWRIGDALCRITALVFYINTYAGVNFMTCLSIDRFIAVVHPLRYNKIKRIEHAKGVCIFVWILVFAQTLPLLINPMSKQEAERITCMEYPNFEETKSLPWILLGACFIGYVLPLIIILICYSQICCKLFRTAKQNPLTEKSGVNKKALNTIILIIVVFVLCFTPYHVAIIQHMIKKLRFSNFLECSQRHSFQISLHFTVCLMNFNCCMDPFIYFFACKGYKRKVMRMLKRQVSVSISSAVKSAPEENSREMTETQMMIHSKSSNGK

## CN1C(=O)C2(OCC(COc3ccc(Cl)cc3)O2)c2ccccc21 (stereo not given)
[1]
  EC50: > 20 µM (not active)
[2]
  EC50: > 20 µM (not active)

## O=C1CC(c2ccccc2)c2cc(O)ccc2O1 (stereo not given)
[3]
  EC50: 32 µM (active)
[4]
  EC50: 34.8 µM (active)
[5]
  IC50: > 100 µM (not active)

## O=C(/C=C/c1ccc(Br)cc1)N1CCN(S(=O)(=O)c2ccc(Br)cc2)CC1
[6]
  IC50: 0.00166 µM (active)

## O=C(Nc1ccc2c(c1)OCO2)c1ccncc1
[7]
  EC50: 25.3 µM (not active)

## O=C(CSc1nnc(C2CCCCC2)n1Cc1ccccc1)NCc1ccco1
Protein Tat
  IC50: > 100 µM (active)
[8]
  IC50: > 100 µM (active)

## O=C(Nc1cccc(Cl)c1)c1ccc(O)nn1
[7]
  EC50: 3.4 µM (active)

## Cc1ccc(C(=O)N/N=C\c2cc(Br)c(Br)o2)cn1
Protein RecA
  EC50: > 380 µM (inconclusive)
[9]
  IC50: > 66 µM (inactive)
[10]
  IC50: 46.3 µM (inactive)
[11]
  CC50: 18.2 µM (active)

## CCCNC(=O)N1[C@H](C#N)[C@H](c2ccc(C3=CCCCC3)cc2)[C@@H]1CO
[12]
  AC50: 3.39 µM (active)
[13]
  AC50: 0.601 µM (active)
[14]
  AC50: 0.355 µM (active)
[15]
  AC50: < 0.3 µM (active)
[16]
  AC50: 0.0228 µM (active)
[17]
  AC50: 0.0853 µM (active)

## Cc1ccc(Nc2nc(NCCO)c3ccccc3n2)cc1C
Vero
  CC50: 13.4 µM (active)
[18]
  IC50: > 20 µM (inactive)

## CC(C)CCCC(C)NCCC(C)C (stereo not given) [OCTAMYLAMINE]
[19]
  IC50: > 33.3 µM (inactive)
[20]
  IC50: > 40 µM (inactive)
[21]
  IC50: > 40 µM (inactive)
